Experimental data as given in US4315023A, “1-Phenethylimidazole derivatives” (Westwood Pharmaceuticals, Inc., priority 1980, dated 1982).
Where a name gives a salt, the structure may show the parent alone.

Experiments:
Candida albicans = Candida albicans induced vaginal infection in mice; type: in vivo, female mice; conditions: for EC50, Candida Vaginal Infection: Table I, percentage drug concentration giving 50% of the score of untreated control, intravaginal; for EC50 (%) (95% CL), Candida vaginal infection: Table II, N = 5, 5 applications day 0 to 4; for Score, Determination A / Score, Determination B / Score, Mean / Score, Determination C / Score, Determination D: score 0-4
Experimental: A majority of the compounds of formula 3 were evaluated together with the prior art compound of formula 2 in a Candida albicans induced vaginal infection in mice and a Trichophyton quinekeanum induced skin infection in guinea pigs. Sabouraud broth was inoculated with Candida albicans and the inoculum incubated for two days at 28° C. on a rotary shaker. Groups of four to five female mice weighing between 18-21 grams were infected intravaginally with a 0.01 ml portion of the cell suspension containing 10^8 cells/ml on day 0. The mice were treated subcutaneously with 0.5 mg of estradiol benzoate three days before and four days after infection. The test compounds were suspended in 1% carboxymethyl cellulose and 0.02 ml of the suspension was instilled intravaginally from day 0 (four hours after infection) to day 4 (5 applications). On day 7, vaginal exudate was taken by a thin glass rod and streaked on a YGP agar plate containing 100 mcg/ml of chloramphenicol. The plate was incubated for two days at 28° C. […] In the following Table I the antifungal activity of the test compound is reported as the EC50 value, which is the percentage drug concentration giving 50% of the score of untreated control animals. The EC50 was calculated by the method of least squares (K. Brounlee: Statistical Theory and Methodology in Science and Engineering, pages 345-349, Wiley Press, New York, 1965). In Table II a more detailed comparison on the in vivo antifungal activities of compound 3a and the isomeric prior art compound 2 are shown together with the data for compound 3b.

Trichophyton quinekeanum = Trichophyton quinekeanum induced skin infection in guinea pigs; type: in vivo, male guinea pigs; conditions: for EC50, Trichophyton Skin Infection: Table I, percentage drug concentration giving 50% of the score of untreated control, topical ointment; for EC50 (%) (95% CL), Trichophyton skin infection: Table II, N = 4, 3 applications day 1, 3 and 5; for Score, Determ. F / Score, Mean / Score, Determ. G / Score, Determ. E: lesion score 0-4
Experimental: In the guinea pig skin infection test, Trichophyton quinekeanum was cultured on a YGP agar slant at 28° C. for 10 days. Spores were collected from the mycelial mat and suspended in Sabouraud broth containing 2% of Tween 80. Groups of 3 male guinea pigs weighing between 400-500 g were used for each dose of test compound. The flanks of the animals were depilated and injured with sandpaper. The injured area was inoculated and rubbed with a glass rod on day 0 with 0.2 ml of the spore suspension containing 10^8 CFU/ml. The test compound was combined with a 1:1 mixture of polyethylene glycol 400 and 4000, and 0.3 ml of the ointment was applied to the infected area on day 1, 3 and 5. Lesions were examined on day 7 and scored as follows: 0, normal; 1, erythema; 2, erythema with whitish area; 3, erythema and numerous whitish areas; 4, erythema with confluent scaling and whitish pateches. A compound showing a mean score of 1.5 or less was considered active.
In the following Table I the antifungal activity of the test compound is reported as the EC50 value, which is the percentage drug concentration giving 50% of the score of untreated control animals. The EC50 was calculated by the method of least squares (K. Brounlee: Statistical Theory and Methodology in Science and Engineering, pages 345-349, Wiley Press, New York, 1965). In Table II a more detailed comparison on the in vivo antifungal activities of compound 3a and the isomeric prior art compound 2 are shown together with the data for compound 3b.
Treatment: 5 applications (day 0 to 4) against candida vaginal infection
and 3 applications (day 1, 3 and 5) against trichophyton skin infection

Streptococcus pneumoniae = experiment: in vitro antibacterial activity (MIC), S. pneumoniae; type: cell-based; conditions: 50% Nutrient Broth + 5% human serum
Streptococcus pyogenes = experiment: in vitro antibacterial activity (MIC), S. pyogenes; type: cell-based; conditions: 50% Nutrient Broth + 5% human serum
S. faecalis = experiment: in vitro antibacterial activity (MIC), S. faecalis; type: cell-based, Streptococcus faecalis; conditions: Enterococcus faecalis; Nutrient Broth
Staphylococcus aureus = experiment: in vitro antibacterial activity (MIC), S. aureus; type: cell-based; conditions: Nutrient Broth

## Clc1ccc(SCCSC(Cn2ccnc2)c2ccc(Cl)cc2Cl)cc1 (centres unmarked) [Compound 2, reference compound]
Candida albicans
  EC50, Candida Vaginal Infection: > 0.3%
  EC50 (%) (95% CL), Candida vaginal infection: > 0.3%
Candida albicans; conc. 0.03%
  Score, Determination A: 2.8
  Score, Determination B: 3.2
  Score, Mean: 3.0
Candida albicans; conc. 0.1%
  Score, Determination A: 2.4
  Score, Determination B: 3.0
  Score, Mean: 2.7
Candida albicans; conc. 0.3%
  Score, Determination A: 3.4
  Score, Determination B: 1.8
  Score, Mean: 2.6
Trichophyton quinekeanum
  EC50, Trichophyton Skin Infection: 0.10%
  EC50 (%) (95% CL), Trichophyton skin infection: 0.10%
Trichophyton quinekeanum; conc. 0.03%
  Score, Determ. F: 2.3
  Score, Mean: 2.3
Trichophyton quinekeanum; conc. 0.1%
  Score, Determ. F: 2.3
  Score, Mean: 2.3
Trichophyton quinekeanum; conc. 0.3%
  Score, Determ. F: 0.5
  Score, Mean: 0.5

## Clc1ccc(CSCSC(Cn2ccnc2)c2ccc(Cl)cc2Cl)cc1 (centres unmarked) [Compound 3a, 1-[2-(4-Chlorobenzylthiomethylthio)-2-(2,4-dichlorophenyl)ethyl]1-H-imidazole hydrogen fumarate]
Candida albicans
  EC50, Candida Vaginal Infection: 0.0035%
  EC50 (%) (95% CL), Candida vaginal infection: 0.0035%
Candida albicans; conc. 0.0003%
  Score, Determination A: 2.8
  Score, Determination B: 2.2
  Score, Determination C: 3.4
  Score, Determination D: 2.5
  Score, Mean: 2.6
Candida albicans; conc. 0.001%
  Score, Determination A: 3.0
  Score, Determination B: 2.2
  Score, Determination C: 2.8
  Score, Determination D: 2.0
  Score, Mean: 2.5
Candida albicans; conc. 0.003%
  Score, Determination A: 1.4
  Score, Determination B: 2.2
  Score, Determination C: 3.0
  Score, Determination D: 1.3
  Score, Mean: 2.0
Candida albicans; conc. 0.01%
  Score, Determination A: 1.5
  Score, Determination B: 0.4
  Score, Determination C: 1.3
  Score, Determination D: 1.3
  Score, Mean: 1.1
Candida albicans; conc. 0.03%
  Score, Determination A: 0.6
  Score, Determination B: 0.8
  Score, Determination C: 0
  Score, Determination D: 0.4
  Score, Mean: 0.45
Candida albicans; relative to prior art compound 2 (for 3a: hydrogen fumarate vs hydrogen fumarate)
  times more efficacious than prior art compound 2, Candida induced vaginal infection in mice: greater than 85 times
Trichophyton quinekeanum
  EC50, Trichophyton Skin Infection: 0.039%
  EC50 (%) (95% CL), Trichophyton skin infection: 0.039%
Trichophyton quinekeanum; conc. 0.01%
  Score, Determ. G: 2.0
  Score, Mean: 2.0
Trichophyton quinekeanum; conc. 0.03%
  Score, Determ. E: 1.8
  Score, Determ. F: 2.5
  Score, Determ. G: 1.5
  Score, Mean: 1.9
Trichophyton quinekeanum; conc. 0.1%
  Score, Determ. E: 1.5
  Score, Determ. F: 1.0
  Score, Determ. G: 0.3
  Score, Mean: 0.92
Trichophyton quinekeanum; conc. 0.3%
  Score, Determ. E: 1.0
  Score, Determ. F: 0
  Score, Determ. G: 0
  Score, Mean: 0.33
Trichophyton quinekeanum; hydrogen fumarate of 3a vs prior art compound 2
  times more efficacious than prior art compound 2, Trichophyton induced skin infection in guinea pigs: about 2.5 times
Streptococcus pneumoniae
  MIC: 63 µg/mL
Streptococcus pyogenes
  MIC: 63 µg/mL
S. faecalis
  MIC: > 63 µg/mL
Staphylococcus aureus; Strain A
  MIC: 0.5 µg/mL
Staphylococcus aureus; Strain B
  MIC: > 63 µg/mL
Staphylococcus aureus; Strain C
  MIC: > 63 µg/mL

## Cl.Clc1ccc(CSCSC(Cn2ccnc2)c2ccc(Cl)cc2Cl)cc1 (centres unmarked) [Compound 3b, 1-[2-(4-Chlorobenzylthiomethylthio)-2-(2,4-dichlorophenyl)ethyl]-1H-imidazole hydrochloride]
Candida albicans
  EC50, Candida Vaginal Infection: 0.0011%
  EC50 (%) (95% CL), Candida vaginal infection: 0.0011%
Candida albicans; conc. 0.0003%
  Score, Determination C: 1.6
  Score, Determination D: 3.3
  Score, Mean: 2.5
Candida albicans; conc. 0.001%
  Score, Determination A: 3.0
  Score, Determination C: 1.6
  Score, Determination D: 0.4
  Score, Mean: 1.7
Candida albicans; conc. 0.003%
  Score, Determination A: 0.4
  Score, Determination B: 2.0
  Score, Determination C: 2.2
  Score, Determination D: 0.2
  Score, Mean: 1.2
Candida albicans; conc. 0.01%
  Score, Determination A: 1.4
  Score, Determination B: 0.6
  Score, Determination C: 1.4
  Score, Determination D: 0
  Score, Mean: 0.85
Candida albicans; conc. 0.03%
  Score, Determination A: 0
  Score, Determination B: 0.8
  Score, Determination C: 2.4
  Score, Determination D: 0.8
  Score, Mean: 1.0
Candida albicans; conc. 0.1%
  Score, Determination A: 0.2
  Score, Determination B: 0
  Score, Mean: 0.1
Candida albicans; conc. 0.3%
  Score, Determination A: 0
  Score, Determination B: 0
  Score, Mean: 0
Trichophyton quinekeanum
  EC50, Trichophyton Skin Infection: 0.053%
  EC50 (%) (95% CL), Trichophyton skin infection: 0.053%
Trichophyton quinekeanum; conc. 0.03%
  Score, Determ. F: 3.5
  Score, Determ. G: 1.3
  Score, Mean: 2.4
Trichophyton quinekeanum; conc. 0.1%
  Score, Determ. F: 1.0
  Score, Determ. G: 0.3
  Score, Mean: 0.7
Trichophyton quinekeanum; conc. 0.3%
  Score, Determ. F: 0.3
  Score, Determ. G: 0.3
  Score, Mean: 0.3
Streptococcus pneumoniae
  MIC: > 63 µg/mL
Streptococcus pyogenes
  MIC: > 63 µg/mL
S. faecalis
  MIC: > 63 µg/mL
Staphylococcus aureus; Strain A
  MIC: > 63 µg/mL
Staphylococcus aureus; Strain B
  MIC: > 63 µg/mL
Staphylococcus aureus; Strain C
  MIC: > 63 µg/mL

## Cc1ccc(CSCSC(Cn2ccnc2)c2ccc(Cl)cc2Cl)cc1.O=C(O)/C=C/C(=O)O (centres unmarked) [Compound 3c, 1-[2-(2,4-Dichlorophenyl)-2-(4-methylbenzylthiomethylthio)ethyl]-1H-imidazole hydrogen fumarate]
Candida albicans
  EC50, Candida Vaginal Infection: 0.0042%
Trichophyton quinekeanum
  EC50, Trichophyton Skin Infection: 0.046%
Streptococcus pneumoniae
  MIC: 63 µg/mL
Streptococcus pyogenes
  MIC: 63 µg/mL
S. faecalis
  MIC: 2 µg/mL
Staphylococcus aureus; Strain A
  MIC: 0.5 µg/mL
Staphylococcus aureus; Strain B
  MIC: > 63 µg/mL
Staphylococcus aureus; Strain C
  MIC: 0.5 µg/mL
